Molecular target: T1, Gag-Pol polyprotein [588-1027]/[588-1147] (Human immunodeficiency virus 1, UniProt P04585)
T1 construct: 588-1027; 588-1147
Test: HIV-1 RT Assay
Conditions: pH 7.9
Source text: The IC50 of reverse transcriptase is the concentration that inhibits 50% of recombinant HIV-1 RT RNA-directed DNA polymerase activity in vitro.

SMILES	IC50 [µM]
COC(=O)N1CCC(=C2c3ccccc3C=Cc3ccccc32)CC1 [methyl 4-{tricyclo[9.4.0.0^{3,8}]pentadeca-1(11),3,5,7,9,12,14-heptaen-2-ylidene}piperidine-1-carboxylate]	> 100
COC(=O)N1CCC(=C(c2cc(Cl)c(OC)c(C(=O)O)c2)c2cc(Cl)c(OC)c(C(=O)O)c2)CC1 [Methyl 4-(3,3-dicarboxy-5,5-dichloro-4,4-dimethoxydiphenylmethylene)piperidinecarboxylate]	> 100
COC(=O)c1cc(C(c2cc(C)c(OC)c(C(=O)OC)c2)C2CCN(C(=O)OC)CC2)cc(C)c1OC [Methyl 4 - (4,4 - dimethoxy - 3,3 - di(methoxycarbonyl)-5,5-dimethyl-diphenylmethyl)piperidinecarboxylate]	> 100
CCOC(=O)N1CCC(=C(c2cc(Cl)c(OC)c(C(=O)OC)c2)c2cc(Cl)c(OC)c(C(=O)OC)c2)CC1 [Ethyl 4-(3,3-dichloro-4,4-dimethoxy-5,5-di(methoxycarbonyl)-diphenylmethylene)piperidinecarboxylate]	> 100
CCOC(=O)N1CCC(=C(c2cc(Cl)c(OC)c(C(=O)O)c2)c2cc(Cl)c(OC)c(C(=O)O)c2)CC1 [Ethyl 4-(3,3-dicarboxy-5,5-dichloro-4,4-dimethoxydiphenylmethylene)piperidinecarboxylate]	> 100
COC(=O)N1CCC(=C2c3ccccc3CCc3ccccc32)CC1 [methyl 4-{tricyclo[9.4.0.0^{3,8}]pentadeca-1(11),3,5,7,12,14-hexaen-2-ylidene}piperidine-1-carboxylate]	> 100
CCOC(=O)N1CCC(=C(c2cc(Cl)c3c(c2)C(=O)OC(C)(C)O3)c2cc(Cl)c3c(c2)C(=O)OC(C)(C)O3)CC1 [ethyl 4-[bis(8-chloro-2,2-dimethyl-4-oxo-2,4-dihydro-1,3-benzodioxin-6-yl)methylidene]piperidine-1-carboxylate]	> 100
CCOC(=O)N1CCC(=C(c2cc(C)c(OC)c(C(=O)OC)c2)c2cc(C)c(OC)c(C(=O)OC)c2)CC1 [ethyl 4-{bis[4-methoxy-3-(methoxycarbonyl)-5-methylphenyl]methylidene}piperidine-1-carboxylate]	> 100
CCOC(=O)N1CCC(C(c2cc(C)c(OC)c(C(=O)OC)c2)c2cc(C)c(OC)c(C(=O)OC)c2)CC1 [Ethyl 4 - (4,4 - dimethoxy - 3,3 - di(methoxycarbonyl)-5,5-dimethyl-diphenylmethyl)piperidinecarboxylate]	> 100
COC(=O)c1cc(C(=C2CCN(C(=O)OC)CC2)c2cc(Cl)c(OC)c(C(=O)OC)c2)cc(Cl)c1OC [methyl 4-{bis[3-chloro-4-methoxy-5-(methoxycarbonyl)phenyl]methylidene}piperidine-1-carboxylate]	> 100
COC(=O)CCCC(=O)N1CCC(=C(c2cc(C)c(OC)c(C(=O)OC)c2)c2cc(C)c(OC)c(C(=O)OC)c2)CC1 [Methyl 5-[4-{4,4-dimethoxy-4,4-bis(methoxycarbonyl)-5,5-(dimethyl)diphenylmethylene}piperidyl]-5-oxopentanoate]	> 100
COC(=O)c1cc(C(=C2CCN(C(=O)OC)CC2)c2cc(C)c(OC)c(C(=O)OC)c2)cc(C)c1OC [Methyl 4-(4,4-dimethoxy-3,3 - di(methoxycarbonyl) -5,5 - dimethyl - diphenylmethylene)piperidinecarboxylate]	> 100
COC(=O)CCCC(=O)N1CCC(=C(c2cc(Cl)c(OC)c(C(=O)OC)c2)c2cc(Cl)c(OC)c(C(=O)OC)c2)CC1 [Methyl 5-[4-{3,3-dichloro-4,4-dimethoxy-5,5-di(methoxycarbonyl)diphenylmethylene}piperidyl]-5-oxopentanoate]	> 100
CCOC(=O)N1CCC(=C(c2cc(Cl)c(O)c(C(=O)O)c2)c2cc(Cl)c(O)c(C(=O)O)c2)CC1 [5-[(3-carboxy-5-chloro-4-hydroxyphenyl)[1-(ethoxycarbonyl)piperidin-4-ylidene]methyl]-3-chloro-2-hydroxybenzoic acid]	> 100
